Measurements as given in US11225505B2, “Antimicrobial polymyxin derivative compounds” (MONASH UNIVERSITY, priority 2015, dated 2022).
≈ marks a conversion by molar mass, not a printed value. Where a SMILES comes first, the peptide text is derived from it. Bridges are numbered along the chain shown (N, C = ends). [ ]: non-standard residue; d: D form. The star is where a group is joined. X51 = O=C(c1cc(Cl)nc(Cl)c1)*; X52 = O=C(c1nc2ccccc2s1)*; X48 = O=C(c1ccc(Cl)nc1)*; Dab = NCC[C@H](N)C(=O)O; Abu = CC[C@H](N)C(=O)O; Dap = NC[C@H](N)C(=O)O

Assays:
[1] = system: Acinetobacter baumannii ATCC 17978; type: cell-based; conditions: A. baumannii ATCC 17978; CAMHB broth microdilution
How it was run: (§1)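 Lipopeptide TFA salts were serially diluted in cation-adjusted Mueller-Hinton broth, inoculated with polymyxin-susceptible Gram-negative bacteria and scored for MIC according to CLSI guidance (M100-S24). Polymyxin B sulphate was included as comparator.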

[2] = system: Acinetobacter baumannii FADDI-AB034; type: cell-based; conditions: A. baumannii FADDI-AB034; CAMHB broth microdilution
How it was run: as §1

[3] = system: Enterobacter cloacae FADDI-EC001; type: cell-based; conditions: E. cloacae FADDI-EC001; CAMHB broth microdilution
How it was run: (§2)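 The read-out is the MIC, obtained by CLSI broth microdilution (M100-S24) in cation-adjusted Mueller-Hinton broth. The compounds were lipopeptide TFA salts, and polymyxin B sulphate served as control.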

[4] = system: Enterobacter cloacae FADDI-EC003; type: cell-based; conditions: E. cloacae FADDI-EC003; CAMHB broth microdilution
How it was run: as §1

[5] = system: Enterobacter cloacae FADDI-EC006; type: cell-based; conditions: E. cloacae FADDI-EC006; CAMHB broth microdilution
How it was run: as §1

[6] = system: Klebsiella pneumoniae FADDI-KP022; type: cell-based; conditions: K. pneumoniae FADDI-KP022; CAMHB broth microdilution
How it was run: as §1

[7] = system: Klebsiella pneumoniae FADDI-KP032; type: cell-based; conditions: K. pneumoniae FADDI-KP032; CAMHB broth microdilution
How it was run: as §1

[8] = system: Klebsiella pneumoniae Kp BM1; type: cell-based; conditions: K. pneumoniae Kp BM1; CAMHB broth microdilution
How it was run: as §2

[9] = system: Pseudomonas aeruginosa ATCC 27853; type: cell-based; conditions: P. aeruginosa ATCC 27853; CAMHB broth microdilution
How it was run: as §1

[10] = system: Pseudomonas aeruginosa FADDI-PA01; type: cell-based; conditions: P. aeruginosa FADDI-PA01; CAMHB broth microdilution
How it was run: as §1

[11] = system: Pseudomonas aeruginosa FADDI-PA022; type: cell-based; conditions: P. aeruginosa FADDI-PA022; CAMHB broth microdilution
How it was run: as §1

[12] = system: Pseudomonas aeruginosa FADDI-PA038; type: cell-based; conditions: P. aeruginosa FADDI-PA038; CAMHB broth microdilution
How it was run: as §1

[13] = system: Acinetobacter baumannii FADDI-AB030; test: microbe, parasite or virus in culture; type: cell-based; conditions: A. baumannii FADDI-AB030; CAMHB broth microdilution
How it was run: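 Lipopeptide TFA salts tested against the multidrug-resistant clinical isolate by CLSI (M100-S24) broth microdilution in cation-adjusted Mueller-Hinton broth, with polymyxin B sulphate as control; MIC read.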

mouse kidney = test: Nephrotoxicity in a mouse model (kidney histology); type: in vivo; conditions: for Max Overall Kidney Histological Score / Max Kidney Histological Score: mice (n=3), subcutaneous 12 mg/kg free base every 2 h, 6 doses in one day; for Max Overall Kidney Histological Score: kidney ~20 h after last dose; for Max Kidney Histological Score: semiquantitative score 0 to +5
Procedure: Polymyxin B sulphate and colistin sulphate were supplied by Betapharma (Shanghai Co., Ltd, China). Stock solutions of compounds in saline (5 mg base/mL) were stored at 4° C. before use. Mice (n=3) were subcutaneously administered with the compound at 12 mg/kg of the free base form every 2 h, 6 doses in one day. At approximately 20 h after the last dose, mice were euthanised by inhalation of an overdose of isoflurane. Immediately after blood sampling, the right kidney from each mouse was collected immediately and placed in 10% formalin in 5 mL plastic tubes and the left kidney placed in a pre-weighed 14 mL plastic tubes, weighed again and stored at −20° C. pending homogenization and analysis of polymyxin B and colistin. The frozen kidney samples were thawed, homogenized in 2 mL of Milli-Q water and stored in a −20° C. freezer. The formalin-fixed kidneys were then sent to the Australian Phenomics Network-Histopathology and Organ Pathology (The University of Melbourne, Parkville, Australia) for histological examination. Samples were examined by a pathologist who was blind to the treatment groups.
Lesions were rated as follows: mild acute tubular damage with tubular dilation, prominent nuclei and a few pale tubular casts (Grade 1); severe acute tubular damage with necrosis of tubular epithelial cells and numerous tubular casts (Grade 2); acute cortical necrosis/infarction of tubules and glomeruli with or without papillary necrosis (Grade 3). The grades were given the following scores: grade 1=1, grade 2=4, and grade 3=10. The percentage of area of the kidney slice showing histological damage was scored as follows: <1%=0, 1 to <5%=1, 5 to <10%=2, 10 to <20%=3, 20 to <30%=4, 30 to <40%=5, and >40%=6. The overall kidney histological score was calculated as the product of the percentage score and grade score. These scores were then expressed as a semiquantitative score (Kidney Histological Score) on a scale of 0 to +5 for renal histological changes. These scores were assigned as follows: SQS 0=no significant change (overall score, <1); SQS +1=mild damage (overall score, 1 to <15); SQS +2=mild to moderate damage (overall score, 15 to <30); SQS +3=moderate damage (overall score, 30 to <45); SQS +4=moderate to severe damage (overall score, 45 to <60); and SQS +5=severe damage (overall score, ≥60) (Yousef, J., et al., (2011) Antimicrob. Agents and Chemother. 55 (9), 4044-4049).
Any compound with a kidney histological score of ≤+1.0 is considered to have a low nephrotoxicity in this model.

## CC[C@@H]1NC(=O)[C@@H](CC(C)C)NC(=O)[C@H](CCN)NC(=O)[C@@H](NC(=O)[C@H](CN)NC(=O)[C@@H](NC(=O)[C@H](CCN)NC(=O)c2ccc(Cl)nc2)[C@@H](C)O)CCNC(=O)[C@H]([C@@H](C)O)NC(=O)[C@H](CCN)NC(=O)[C@H](CCN)NC1=O [Compound 4] (X48-[Dab]T[Dap][Dab][Dab][dL][Abu][Dab][Dab]T; lactam 4-C)
[1]
  Minimum inhibitory concentration: 1 µg/mL (≈ 0.888 µM)
[2]
  Minimum inhibitory concentration: 1 µg/mL (≈ 0.888 µM)
[3]
  Minimum inhibitory concentration: 2 µg/mL (≈ 1.78 µM)
[4]
  Minimum inhibitory concentration: 0.5 µg/mL (≈ 0.444 µM)
[5]
  Minimum inhibitory concentration: 4 µg/mL (≈ 3.55 µM)
[6]
  Minimum inhibitory concentration: 0.5 µg/mL (≈ 0.444 µM)
[7]
  Minimum inhibitory concentration: 1 µg/mL (≈ 0.888 µM)
[8]
  Minimum inhibitory concentration: 2 µg/mL (≈ 1.78 µM)
[9]
  Minimum inhibitory concentration: 0.5 µg/mL (≈ 0.444 µM)
[10]
  Minimum inhibitory concentration: 0.5 µg/mL (≈ 0.444 µM)
[11]
  Minimum inhibitory concentration: 1 µg/mL (≈ 0.888 µM)
[12]
  Minimum inhibitory concentration: 1 µg/mL (≈ 0.888 µM)
[13]
  Minimum inhibitory concentration: 2 µg/mL (≈ 1.78 µM)
Mouse kidney
  Max Overall Kidney Histological Score: 0.0
  Max Kidney Histological Score: 0 (SQS 0=no significant change (overall score, <1))

## CC[C@@H]1NC(=O)[C@@H](CC(C)C)NC(=O)[C@H](CCN)NC(=O)[C@@H](NC(=O)[C@H](CN)NC(=O)[C@@H](NC(=O)[C@H](CCN)NC(=O)c2nc3ccccc3s2)[C@@H](C)O)CCNC(=O)[C@H]([C@@H](C)O)NC(=O)[C@H](CCN)NC(=O)[C@H](CCN)NC1=O [Compound 70] (X52-[Dab]T[Dap][Dab][Dab][dL][Abu][Dab][Dab]T; lactam 4-C)
[1]
  Minimum inhibitory concentration: 0.5 µg/mL (≈ 0.435 µM)
[2]
  Minimum inhibitory concentration: 1 µg/mL (≈ 0.871 µM)
[3]
  Minimum inhibitory concentration: 0.25 µg/mL (≈ 0.218 µM)
[4]
  Minimum inhibitory concentration: 0.25 µg/mL (≈ 0.218 µM)
[5]
  Minimum inhibitory concentration: 0.25 µg/mL (≈ 0.218 µM)
[6]
  Minimum inhibitory concentration: <0.125 µg/mL
[7]
  Minimum inhibitory concentration: <0.125 µg/mL
[8]
  Minimum inhibitory concentration: <0.125 µg/mL
[9]
  Minimum inhibitory concentration: 0.5 µg/mL (≈ 0.435 µM)
[10]
  Minimum inhibitory concentration: 0.25 µg/mL (≈ 0.218 µM)
[11]
  Minimum inhibitory concentration: 0.5 µg/mL (≈ 0.435 µM)
[12]
  Minimum inhibitory concentration: 1 µg/mL (≈ 0.871 µM)
[13]
  Minimum inhibitory concentration: 0.5 µg/mL (≈ 0.435 µM)
Mouse kidney
  Max Overall Kidney Histological Score: 0.0
  Max Kidney Histological Score: 0 (SQS 0=no significant change (overall score, <1))

## Colistin [reference compound]
[1]
  Minimum inhibitory concentration: 0.5 µg/mL
[2]
  Minimum inhibitory concentration: 0.5 µg/mL
[3]
  Minimum inhibitory concentration: 0.25 µg/mL
[4]
  Minimum inhibitory concentration: <0.125 µg/mL
[5]
  Minimum inhibitory concentration: <0.125 µg/mL
[6]
  Minimum inhibitory concentration: 1 µg/mL
[7]
  Minimum inhibitory concentration: 1 µg/mL
[8]
  Minimum inhibitory concentration: <0.125 µg/mL
[9]
  Minimum inhibitory concentration: 1 µg/mL
[10]
  Minimum inhibitory concentration: 0.5 µg/mL
[11]
  Minimum inhibitory concentration: 1 µg/mL
[12]
  Minimum inhibitory concentration: 1 µg/mL
[13]
  Minimum inhibitory concentration: 0.25 µg/mL
Mouse kidney; 12 mg/kg every 2 h, 6 doses, subcutaneous
  nephrotoxicity in the mouse model (in words): severe nephrotoxicity
Mouse kidney
  Max Overall Kidney Histological Score: 60.0
  Max Kidney Histological Score: +5 (SQS +5=severe damage (overall score, ≥60))

## CC[C@@H]1NC(=O)[C@@H](CC(C)C)NC(=O)[C@H](CCN)NC(=O)[C@@H](NC(=O)[C@H](CN)NC(=O)[C@@H](NC(=O)[C@H](CCN)NC(=O)c2cc(Cl)nc(Cl)c2)[C@@H](C)O)CCNC(=O)[C@H]([C@@H](C)O)NC(=O)[C@H](CCN)NC(=O)[C@H](CCN)NC1=O [Compound 19] (X51-[Dab]T[Dap][Dab][Dab][dL][Abu][Dab][Dab]T; lactam 4-C)
Mouse kidney
  Max Overall Kidney Histological Score: 0.0
  Max Kidney Histological Score: 0 (SQS 0=no significant change (overall score, <1))
